The NIST ThermoML archive (doi:10.1021/je100068y)

Test: mn = molality of the nth substance listed, in mol/kg
Conditions: 101.33 kPa, Liquid

CC(C)C[C@H](NC(=O)CN)C(=O)O [glycyl-L-leucine] + O
mass density [kg/m3]
Conditions	m1 = 0.01944	m1 = 0.02958	m1 = 0.0395	m1 = 0.04928	m1 = 0.057	m1 = 0.07128	m1 = 0.09125	m1 = 0.1001
298.15 K	997.991	998.487	998.954	999.428	999.792	1000.49	1001.44	1001.85
303.15 K	996.492	996.981	997.455	997.926	998.294	998.981	999.94	1000.35
308.15 K	994.971	995.453	995.927	996.398	996.773	997.443	998.415	998.822
313.15 K	993.308	993.787	994.248	994.705	995.068	995.712	996.655	997.07

CC(C)[C@H](NC(=O)CN)C(=O)O [glycyl-L-valine] + O
mass density [kg/m3]
Conditions	m1 = 0.02257	m1 = 0.03982	m1 = 0.06066	m1 = 0.07858	m1 = 0.1017	m1 = 0.1513	m1 = 0.1791	m1 = 0.2026
298.15 K	998.221	999.108	1000.17	1001.09	1002.26	1004.75	1006.13	1007.28
303.15 K	996.723	997.606	998.679	999.59	1000.76	1003.24	1004.65	1005.79
308.15 K	995.192	996.067	997.129	998.03	999.181	1001.63	1003.01	1004.11
313.15 K	993.535	994.395	995.435	996.317	997.462	999.879	1001.22	1002.29

NCC(=O)NCC(=O)O [glycylglycine] + O
mass density [kg/m3]
Conditions	m1 = 0.0294	m1 = 0.04517	m1 = 0.06076	m1 = 0.07901	m1 = 0.1051	m1 = 0.1496	m1 = 0.2003	m1 = 0.257	m1 = 0.3022
298.15 K	998.688	999.547	1000.42	1001.42	1002.86	1005.27	1007.99	1011.04	1013.4
303.15 K	997.189	998.051	998.909	999.898	1001.33	1003.76	1006.46	1009.51	1011.87
308.15 K	995.661	996.52	997.375	998.349	999.766	1002.15	1004.89	1007.83	1010.28
313.15 K	994.003	994.856	995.681	996.677	998.065	1000.44	1003.12	1006.06	1008.41

O [water] + NCC(=O)NCC(=O)O
m2 = 0
Conditions	mass density [kg/m3]
303.15 K	995.55
313.15 K	992.392
